US20110040086A1, “Novel Beta-Lactam Antibiotics, Methods for Their Production, and Their Use” (DRITTE PATENTPORTFOLIO BETEILIGUNGSGESELLSCHAFT MB, priority 2007, published 2011)

Key:
B. subtilis AWD 166 = experiment: agar diffusion test (antimicrobial effect); assay type: cell-based, Bacillus subtilis
Method in brief: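 Nutrient agar seeded with B. subtilis AWD 166 to give dense non-confluent colonies; compounds in methanol or distilled water applied to discs at 10, 50, 100 μg. After 20 h at 37 °C, inhibition zone diameter measured in mm.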

[1] = system: Bacillus megaterium SBUG 1152; experiment: agar diffusion test (Test System 1, antimicrobial effect); assay type: cell-based
Method in brief: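 B. megaterium SBUG 1152 grown overnight (17 h, 37° C., 180 rpm) and seeded at 10^6 cells per 10 ml nutrient agar. Compound at 10, 50 and 100 μg, dissolved in methanol or water, applied to paper discs. Inhibition-zone diameter (mm) read after 20 h at 37° C.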

S. epidermidis 1068 = experiment: agar diffusion test (Test System II, multi-resistant germs); assay type: cell-based, Staphylococcus epidermidis; parameters: key: r = resistant (no detectable zone of inhibition)
Method in brief: (§1)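 A McFarland 0.5 bacterial suspension in physiological saline is spread vertically, horizontally and transversely over Müller-Hinton agar II. Three sensi-discs bearing 10, 50 and 100 μg of test compound go onto each plate, which then incubates at 37 °C for 18-20 h before zone diameters are recorded.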

S. epidermidis 563 = experiment: as above; assay type: cell-based, Staphylococcus epidermidis; parameters: key: r = resistant (no detectable zone of inhibition)
Method in brief: as §1

S. epidermidis 1071 = experiment: as above; assay type: cell-based, Staphylococcus epidermidis; parameters: key: r = resistant (no detectable zone of inhibition)
Method in brief: as §1

S. epidermidis 847 = experiment: as above; assay type: cell-based, Staphylococcus epidermidis; parameters: key: r = resistant (no detectable zone of inhibition)
Method in brief: as §1

S. aureus 39105 = experiment: as above; assay type: cell-based, Staphylococcus aureus; parameters: key: r = resistant (no detectable zone of inhibition)
Method in brief: as §1

S. aureus 36881 = experiment: as above; assay type: cell-based, Staphylococcus aureus; parameters: key: r = resistant (no detectable zone of inhibition)
Method in brief: as §1

S. aureus 33490 = experiment: as above; assay type: cell-based, Staphylococcus aureus; parameters: key: r = resistant (no detectable zone of inhibition)
Method in brief: as §1

S. aureus 526 = experiment: as above; assay type: cell-based, Staphylococcus aureus; parameters: key: r = resistant (no detectable zone of inhibition)
Method in brief: as §1

S. aureus 520 = experiment: as above; assay type: cell-based, Staphylococcus aureus; parameters: key: r = resistant (no detectable zone of inhibition)
Method in brief: as §1

[2] = system: S. aureus North Germany strain; experiment: as above; assay type: cell-based, Staphylococcus aureus; parameters: key: r = resistant (no detectable zone of inhibition)
Method in brief: as §1

S. aureus 34289 = experiment: as above; assay type: cell-based, Staphylococcus aureus; parameters: key: r = resistant (no detectable zone of inhibition)
Method in brief: as §1

S. epidermidis 125 = experiment: as above; assay type: cell-based, Staphylococcus epidermidis
Method in brief: as §1

[3] = system: Escherichia coli SBUG 1135; experiment: agar diffusion test (Test System 1, antimicrobial effect); assay type: cell-based; parameters: key: r = resistant (no detectable zone of inhibition)
Method in brief: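 E. coli SBUG 1135 grown 17 h at 37° C, 180 rpm, diluted 1:100 and seeded in nutrient agar at ~10^6 cells. Discs loaded with 10, 50 or 100 μg compound (methanol or water); inhibition-zone diameter (mm) read after 20 h at 37° C.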

[4] = system: Staphylococcus aureus 315; experiment: agar diffusion test (Test System II, multi-resistant germs); assay type: cell-based; parameters: key: r = resistant (no detectable zone of inhibition)
Method in brief: as §1

[5] = system: Enterococcus faecalis 769; experiment: as above; assay type: cell-based; parameters: key: r = resistant (no detectable zone of inhibition)
Method in brief: as §1

S. aureus 38418 = experiment: as above; assay type: cell-based, Staphylococcus aureus
Method in brief: as §1

Measured: Diameter of zone of inhibition

7-[2-(2-carbamoyl-3,6-dioxocyclohexa-1,4-dienylamino)-2-(4-hydroxyphenyl)-acetylamino]-desacetoxycephalosporanic acid [1b]
16 mm: S. epidermidis 1068; Quantity n 0.1 | S. aureus 38418; Quantity n [mol] 0.019
20 mm: S. epidermidis 1068; Quantity n 0.19 | S. epidermidis 563; Quantity n 0.19 | S. aureus 33490; Quantity n [μmol] 0.19
12 mm: S. epidermidis 847; Quantity n [mol] 0.19 | S. aureus 39105; Quantity n 0.1 | S. aureus 36881; Quantity n 0.1 | S. aureus 526; Quantity n 0.19 | [2]; Quantity n 0.19 | S. aureus 34289; Quantity n [mol] 0.19
32 mm: B. subtilis AWD 166; Quantity n 0.19 | [1]; Quantity n 0.19
14 mm: S. epidermidis 563; Quantity n 0.1 | S. aureus 33490; Quantity n [μmol] 0.1 | S. epidermidis 125; Quantity n 0.019 | [3]; Quantity n 0.1
8 mm: [2]; Quantity n 0.1 | [4]; Quantity n 0.19
26 mm: S. epidermidis 125; Quantity n 0.19 | S. aureus 38418; Quantity n [mol] 0.19
22 mm: B. subtilis AWD 166; Quantity n 0.019 | [1]; Quantity n 0.019 | S. epidermidis 1071; Quantity n 0.19 | S. epidermidis 125; Quantity n 0.1
30 mm: B. subtilis AWD 166; Quantity n 0.1 | [1]; Quantity n 0.1
r: S. epidermidis 1068; Quantity n 0.019 | S. epidermidis 563; Quantity n 0.019 | S. epidermidis 1071; Quantity n 0.019 | S. epidermidis 847; Quantity n [mol] 0.019 | S. aureus 39105; Quantity n 0.019 | S. aureus 36881; Quantity n 0.019 | S. aureus 33490; Quantity n [μmol] 0.019 | S. aureus 526; Quantity n 0.019 | S. aureus 526; Quantity n 0.1 | S. aureus 520; Quantity n [mol] 0.019 | S. aureus 520; Quantity n [mol] 0.1 | S. aureus 520; Quantity n [mol] 0.19 | [2]; Quantity n 0.019 | S. aureus 34289; Quantity n [mol] 0.019 | S. aureus 34289; Quantity n [mol] 0.1 | [3]; Quantity n 0.019 | [4]; Quantity n 0.019 | [4]; Quantity n 0.1 | [5]; Quantity n 0.019 | [5]; Quantity n 0.1 | [5]; Quantity n 0.19
24 mm: S. aureus 38418; Quantity n [mol] 0.1
18 mm: S. epidermidis 1071; Quantity n 0.1 | S. aureus 39105; Quantity n 0.19 | S. aureus 36881; Quantity n 0.19 | [3]; Quantity n 0.19
10 mm: S. epidermidis 847; Quantity n [mol] 0.1

3-chlorine-7-[2-(2-methoxycarbonyl-3,6-dioxocyclohexa-1,4-dienylamino)-2-phenyl-acetylamino]-8-oxo-1-thia-5-azabicyclo[4.2.0]oct-3-en-4-carboxylic acid [1k]
18 mm: S. epidermidis 563; Quantity n 0.029 | S. epidermidis 1071; Quantity n 0.029 | S. aureus 36881; Quantity n 0.29 | [2]; Quantity n 0.29 | [3]; Quantity n 0.029
26 mm: S. aureus 33490; Quantity n [μmol] 0.29
22 mm: S. epidermidis 1068; Quantity n 0.14 | S. aureus 39105; Quantity n 0.29 | S. aureus 38418; Quantity n [mol] 0.029
20 mm: S. aureus 39105; Quantity n 0.14 | S. epidermidis 125; Quantity n 0.029
32 mm: S. epidermidis 125; Quantity n 0.29
12 mm: [4]; Quantity n 0.14
24 mm: S. epidermidis 1068; Quantity n 0.29 | S. epidermidis 1071; Quantity n 0.14 | S. epidermidis 847; Quantity n [mol] 0.14 | S. aureus 33490; Quantity n [μmol] 0.14 | [3]; Quantity n 0.14
8 mm: S. epidermidis 847; Quantity n [mol] 0.029 | S. aureus 39105; Quantity n 0.029 | [5]; Quantity n 0.14
36 mm: B. subtilis AWD 166; Quantity n 0.14 | [1]; Quantity n 0.14
38 mm: B. subtilis AWD 166; Quantity n 0.29 | [1]; Quantity n 0.29
14 mm: S. epidermidis 1068; Quantity n 0.029 | S. aureus 36881; Quantity n 0.14 | [2]; Quantity n 0.14 | [4]; Quantity n 0.29 | [5]; Quantity n 0.29
10 mm: S. aureus 520; Quantity n [mol] 0.29
r: S. aureus 36881; Quantity n 0.029 | S. aureus 526; Quantity n 0.029 | S. aureus 526; Quantity n 0.14 | S. aureus 526; Quantity n 0.29 | S. aureus 520; Quantity n [mol] 0.029 | S. aureus 520; Quantity n [mol] 0.14 | [2]; Quantity n 0.029 | S. aureus 34289; Quantity n [mol] 0.029 | S. aureus 34289; Quantity n [mol] 0.14 | S. aureus 34289; Quantity n [mol] 0.29 | [4]; Quantity n 0.029 | [5]; Quantity n 0.029
28 mm: S. epidermidis 563; Quantity n 0.14 | S. epidermidis 1071; Quantity n 0.29 | S. epidermidis 847; Quantity n [mol] 0.29 | [3]; Quantity n 0.29
34 mm: S. aureus 38418; Quantity n [mol] 0.29
30 mm: B. subtilis AWD 166; Quantity n 0.029 | [1]; Quantity n 0.029 | S. epidermidis 563; Quantity n 0.29 | S. epidermidis 125; Quantity n 0.14 | S. aureus 38418; Quantity n [mol] 0.14
16 mm: S. aureus 33490; Quantity n [μmol] 0.029
